Measured values as given in BindingDB's records for patent US9675571 (Bristol-Myers Squibb, 2017).

Biological target: Indoleamine 2,3-dioxygenase 1 (Homo sapiens, UniProt P14902)
Assay: IDO Kynurenine Assay
Details: 25 °C
Procedure: Human IDO1/HEK293 cells were seeded at 10,000 cells per 50 uL per well with RPMI/phenol red free media contains 10% FBS in a 384-well black wall clear bottom tissue culture plate (Matrix Technologies LLC) 125 nL of certain concentration of compound was then added to each well using ECHO liquid handling systems. The cells were incubated for 20 hours in 37° C. incubator with 5% CO2. The compound treatments were stopped by adding Trichloroacetic Acid (Sigma-Aldrich) to a final concentration at 0.2%. The cell plate was further incubated at 50° C. for 30 minute. The equal volume supernatant (20 uL) and 0.2% (w/v) Ehrlich reagent (4-dimethylaminobenzaldehyde, Sigma-Aldrich) in glacial acetic acid were mixed in a new clear bottom 384-well plate. This plate was then incubated at room temperature for 30 minute. The absorbance at 490 nm was measured on Envision plate reader.

Chain of Indoleamine 2,3-dioxygenase 1 (P14902 whole entry): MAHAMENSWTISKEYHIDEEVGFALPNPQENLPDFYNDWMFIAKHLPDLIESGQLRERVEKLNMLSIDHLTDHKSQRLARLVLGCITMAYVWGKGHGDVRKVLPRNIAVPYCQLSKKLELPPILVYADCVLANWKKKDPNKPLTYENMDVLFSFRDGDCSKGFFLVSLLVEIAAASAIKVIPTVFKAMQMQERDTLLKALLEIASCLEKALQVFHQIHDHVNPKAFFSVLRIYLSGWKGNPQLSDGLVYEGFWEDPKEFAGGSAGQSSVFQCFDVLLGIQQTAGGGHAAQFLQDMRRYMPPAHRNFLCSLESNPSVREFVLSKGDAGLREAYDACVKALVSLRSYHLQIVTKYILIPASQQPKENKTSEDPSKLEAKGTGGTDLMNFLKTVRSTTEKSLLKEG

For Cc1cc(NC(=O)Nc2cc([C@H]3C[C@H]3C(=O)O)ccc2N(CC(C)C)C2CCCCC2)on1 [US9675571, 129], the EC50 was 0.5 nM.
